Data from ChEMBL document CHEMBL1155727, “Prunioside A: a new terpene glycoside from Spiraea prunifolia” (J Nat Prod, 2001).
The source made the active and inactive calls. No cut-off for these calls is given here.

Experiments:
Format in all cases: functional, cell-based
[1] = test system: RAW264.7; experiment: Antiinflammatory activity in LPS-stimulated mouse RAW264.7 cells assessed as inhibition of nitric oxide production at 200 ug/mL after 18 hrs by Griess reagent-based ELISA
[2] = test system: RAW264.7; experiment: Antiinflammatory activity in IFN-gamma-stimulated mouse RAW264.7 cells assessed as inhibition of nitric oxide production at 200 ug/mL after 18 hrs by Griess reagent-based ELISA
[3] = test system: RAW264.7; experiment: Antiinflammatory activity in LPS-stimulated mouse RAW264.7 cells assessed as inhibition of nitric oxide production after 18 hrs by Griess reagent-based ELISA
[4] = test system: RAW264.7; experiment: Inhibition of iNOS mRNA expression in LPS-stimulated mouse RAW264.7 cells at 0.1 to 20 ug/mL by RT-PCR analysis
[5] = test system: RAW264.7; experiment: Inhibition of iNOS mRNA expression in IFN-gamma-stimulated mouse RAW264.7 cells at 0.1 to 20 ug/mL by RT-PCR analysis
[6] = test system: RAW264.7; experiment: Antiinflammatory activity in IFN-gamma-stimulated mouse RAW264.7 cells assessed as inhibition of nitric oxide production after 18 hrs by Griess reagent-based ELISA

C=C(C)C(OC(=O)/C=C/c1ccc(O)cc1)C1C/C(=C/CO[C@@H]2O[C@H](CO)[C@@H](O)[C@H](O)[C@H]2O)C(=O)O1 (stereo partly specified)
inhibition [1]: inactive | inhibition [2]: inactive

C=C(C)C(OC(=O)/C=C/c1ccc(OC(C)=O)cc1)C1C/C(=C/CO[C@@H]2O[C@H](COC(C)=O)[C@@H](OC(C)=O)[C@H](OC(C)=O)[C@H]2OC(C)=O)C(=O)O1 (stereo partly specified)
inhibition [3]: Dose-dependent effect | inhibition [4]: Active | inhibition [5]: Active | inhibition [6]: Dose-dependent effect
